Data published in PubChem BioAssay AID2060509 (Molecular Pharmacology Branch, DTP, NCI, 2025).

Tested on: 485176-168-R4-J1-PDC spheroids with HUVEC/MSC, viability
Assay: Anticancer human tumor 485176-168-R4-J1-PDC patient-derived pancreatic adenocarcinoma cell line growth inhibition [GQUAD]
Conditions: for IC50: curve of first compound; for viability, T/C: stronger effect = lower value
In short: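 Multi-cell-type spheroids of tumor cells with HUVEC and mesenchymal stem cells, treated with drug combinations. Concentrations descend in half-log steps from near clinical Cmax, or from 10 microM where Cmax is unknown; viability read-out.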

[1] = second compound 0.0316 µM, first compound 0.0316 µM
[2] = second compound 0.0316 µM, first compound 0.1 µM
[3] = second compound 0.0316 µM, first compound 0.316 µM
[4] = second compound 0.0316 µM, first compound 1 µM
[5] = second compound 0.0316 µM, first compound 3.16 µM
[6] = second compound 0.0316 µM, first compound 10 µM
[7] = second compound 0.1 µM, first compound 0.0316 µM
[8] = second compound 0.1 µM, first compound 0.1 µM
[9] = second compound 0.1 µM, first compound 0.316 µM
[10] = second compound 0.1 µM, first compound 1 µM
[11] = second compound 0.1 µM, first compound 3.16 µM
[12] = second compound 0.1 µM, first compound 10 µM
[13] = second compound 0.316 µM, first compound 0.0316 µM
[14] = second compound 0.316 µM, first compound 0.1 µM
[15] = second compound 0.316 µM, first compound 0.316 µM
[16] = second compound 0.316 µM, first compound 1 µM
[17] = second compound 0.316 µM, first compound 3.16 µM
[18] = second compound 0.316 µM, first compound 10 µM
[19] = second compound 1 µM, first compound 0.0316 µM
[20] = second compound 1 µM, first compound 0.1 µM
[21] = second compound 1 µM, first compound 0.316 µM
[22] = second compound 1 µM, first compound 1 µM
[23] = second compound 1 µM, first compound 3.16 µM
[24] = second compound 1 µM, first compound 10 µM
[25] = second compound 3.16 µM, first compound 0.0316 µM
[26] = second compound 3.16 µM, first compound 0.1 µM
[27] = second compound 3.16 µM, first compound 0.316 µM
[28] = second compound 3.16 µM, first compound 1 µM
[29] = second compound 3.16 µM, first compound 3.16 µM
[30] = second compound 3.16 µM, first compound 10 µM
[31] = second compound 10 µM, first compound 0.0316 µM
[32] = second compound 10 µM, first compound 0.1 µM
[33] = second compound 10 µM, first compound 0.316 µM
[34] = second compound 10 µM, first compound 1 µM
[35] = second compound 10 µM, first compound 3.16 µM
[36] = second compound 10 µM, first compound 10 µM
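Note: spheroids exposed to compounds for seven days before readout.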
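Throughout, for viability, T/C: percent viability relative to DMSO vehicle control wells as 100%.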

COc1ccc([C@@H](O)c2cc(-c3ncnc4cc(N5CCOCC5)ccc34)c(F)cc2Cl)nn1 + Cc1[nH]c2ccc(F)cc2c1-c1nc2c3cccnc3c3ncccc3c2[nH]1
IC50 (second compound 0.0316 µM): 3020 nM | IC50 (second compound 0.1 µM): 2690 nM | IC50 (second compound 0.316 µM): 3660 nM | IC50 (second compound 1 µM): 2520 nM | IC50 (second compound 3.16 µM): 1850 nM | IC50 (second compound 10 µM): 1760 nM | viability, T/C [1]: 83.4% | viability, T/C [2]: 98.8% | viability, T/C [3]: 91.8% | viability, T/C [4]: 69.8% | viability, T/C [5]: 51.6% | viability, T/C [6]: 31.4% | viability, T/C [7]: 91.9% | viability, T/C [8]: 90.2% | viability, T/C [9]: 94.7% | viability, T/C [10]: 68.6% | viability, T/C [11]: 48.7% | viability, T/C [12]: 27.7% | viability, T/C [13]: 91.2% | viability, T/C [14]: 88.9% | viability, T/C [15]: 82% | viability, T/C [16]: 86.6% | viability, T/C [17]: 53.2% | viability, T/C [18]: 28.1% | viability, T/C [19]: 81% | viability, T/C [20]: 79% | viability, T/C [21]: 94.2% | viability, T/C [22]: 66.5% | viability, T/C [23]: 46.5% | viability, T/C [24]: 22.4% | viability, T/C [25]: 98.5% | viability, T/C [26]: 87.9% | viability, T/C [27]: 74.4% | viability, T/C [28]: 63.2% | viability, T/C [29]: 39.1% | viability, T/C [30]: 21.3% | viability, T/C [31]: 97.4% | viability, T/C [32]: 78.3% | viability, T/C [33]: 76% | viability, T/C [34]: 56% | viability, T/C [35]: 45.7% | viability, T/C [36]: 21.1%

CC(C)n1c(=O)n(C)c2cnc3cc(F)c(-c4ccc(OCCCN5CCCCC5)nc4)cc3c21 + CN(C)c1ccc(Nc2c3ccc(NC(=O)CCN4CCCC4)cc3nc3cc(NC(=O)CCN4CCCC4)ccc23)cc1
IC50 (second compound 0.0316 µM): > 10000 nM | IC50 (second compound 0.1 µM): > 10000 nM | IC50 (second compound 0.316 µM): > 10000 nM | IC50 (second compound 1 µM): > 10000 nM | IC50 (second compound 3.16 µM): > 10000 nM | IC50 (second compound 10 µM): 5420 nM | viability, T/C [1]: 89.8% | viability, T/C [2]: 81.3% | viability, T/C [3]: 104% | viability, T/C [4]: 89.7% | viability, T/C [5]: 93.3% | viability, T/C [6]: 71.7% | viability, T/C [7]: 92.7% | viability, T/C [8]: 91.1% | viability, T/C [9]: 104% | viability, T/C [10]: 95.7% | viability, T/C [11]: 94.7% | viability, T/C [12]: 68.4% | viability, T/C [13]: 111% | viability, T/C [14]: 90.4% | viability, T/C [15]: 94.7% | viability, T/C [16]: 98.2% | viability, T/C [17]: 94.5% | viability, T/C [18]: 82.1% | viability, T/C [19]: 111% | viability, T/C [20]: 95.9% | viability, T/C [21]: 80.6% | viability, T/C [22]: 79.7% | viability, T/C [23]: 71.2% | viability, T/C [24]: 77.8% | viability, T/C [25]: 81.6% | viability, T/C [26]: 91.7% | viability, T/C [27]: 86.6% | viability, T/C [28]: 85.2% | viability, T/C [29]: 79.1% | viability, T/C [30]: 59.9% | viability, T/C [31]: 81.7% | viability, T/C [32]: 65.7% | viability, T/C [33]: 71.5% | viability, T/C [34]: 64.5% | viability, T/C [35]: 64.6% | viability, T/C [36]: 36.3%

O=C(NO)c1cnc(N2CCN(S(=O)(=O)c3ccc4ccccc4c3)CC2)nc1 + Cc1[nH]c2ccc(F)cc2c1-c1nc2c3cccnc3c3ncccc3c2[nH]1
IC50 (second compound 0.0316 µM): 511 nM | IC50 (second compound 0.1 µM): 597 nM | IC50 (second compound 0.316 µM): 557 nM | IC50 (second compound 1 µM): 592 nM | IC50 (second compound 3.16 µM): 1030 nM | IC50 (second compound 10 µM): 1020 nM | viability, T/C [1]: 94.1% | viability, T/C [2]: 86.3% | viability, T/C [3]: 70.8% | viability, T/C [4]: 21.8% | viability, T/C [5]: 0.24% | viability, T/C [6]: 0.23% | viability, T/C [7]: 90.3% | viability, T/C [8]: 98.4% | viability, T/C [9]: 80.4% | viability, T/C [10]: 25.1% | viability, T/C [11]: 0.3% | viability, T/C [12]: 0.19% | viability, T/C [13]: 122% | viability, T/C [14]: 87.5% | viability, T/C [15]: 67.1% | viability, T/C [16]: 42.8% | viability, T/C [17]: 0.2% | viability, T/C [18]: 0.18% | viability, T/C [19]: 94.2% | viability, T/C [20]: 84.7% | viability, T/C [21]: 68% | viability, T/C [22]: 37.6% | viability, T/C [23]: 0.32% | viability, T/C [24]: 0.18% | viability, T/C [25]: 87.9% | viability, T/C [26]: 79.9% | viability, T/C [27]: 73.5% | viability, T/C [28]: 52.3% | viability, T/C [29]: 0.29% | viability, T/C [30]: 0.21% | viability, T/C [31]: 88.2% | viability, T/C [32]: 71.7% | viability, T/C [33]: 75.6% | viability, T/C [34]: 50.9% | viability, T/C [35]: 0.27% | viability, T/C [36]: 0.37%

O=C(c1cc(Cc2n[nH]c(=O)c3ccccc23)ccc1F)N1CCN(C(=O)C2CC2)CC1 + Cc1cnc(CNC(=O)c2c(=O)c3ccc(N4CCCN(C)CC4)nc3n3c2sc2ccccc23)cn1
IC50 (second compound 0.0316 µM): > 10000 nM | IC50 (second compound 0.1 µM): > 10000 nM | IC50 (second compound 0.316 µM): > 10000 nM | IC50 (second compound 1 µM): < 31.6 nM | IC50 (second compound 3.16 µM): < 31.6 nM | IC50 (second compound 10 µM): < 31.6 nM | viability, T/C [1]: 92.7% | viability, T/C [2]: 74.2% | viability, T/C [3]: 85.1% | viability, T/C [4]: 71% | viability, T/C [5]: 68.4% | viability, T/C [6]: 75.7% | viability, T/C [7]: 63.5% | viability, T/C [8]: 75.8% | viability, T/C [9]: 63.4% | viability, T/C [10]: 64.4% | viability, T/C [11]: 75.8% | viability, T/C [12]: 59.2% | viability, T/C [13]: 57.2% | viability, T/C [14]: 52.8% | viability, T/C [15]: 60.7% | viability, T/C [16]: 59.2% | viability, T/C [17]: 54.2% | viability, T/C [18]: 45.6% | viability, T/C [19]: 44.8% | viability, T/C [20]: 43.7% | viability, T/C [21]: 52.6% | viability, T/C [22]: 42.6% | viability, T/C [23]: 48.4% | viability, T/C [24]: 42.6% | viability, T/C [25]: 47.4% | viability, T/C [26]: 43.7% | viability, T/C [27]: 38.4% | viability, T/C [28]: 38.6% | viability, T/C [29]: 41.6% | viability, T/C [30]: 35.8% | viability, T/C [31]: 43.5% | viability, T/C [32]: 39.7% | viability, T/C [33]: 42.1% | viability, T/C [34]: 38.4% | viability, T/C [35]: 35.6% | viability, T/C [36]: 35.4%

C=CCn1c(=O)c2cnc(Nc3ccc(N4CCN(C)CC4)cc3)nc2n1-c1cccc(C(C)(C)O)n1 + CN(C)c1ccc(Nc2c3ccc(NC(=O)CCN4CCCC4)cc3nc3cc(NC(=O)CCN4CCCC4)ccc23)cc1
IC50 (second compound 0.0316 µM): 554 nM | IC50 (second compound 0.1 µM): 544 nM | IC50 (second compound 0.316 µM): 344 nM | IC50 (second compound 1 µM): 450 nM | IC50 (second compound 3.16 µM): 507 nM | IC50 (second compound 10 µM): 459 nM | viability, T/C [1]: 98.2% | viability, T/C [2]: 89.9% | viability, T/C [3]: 79.2% | viability, T/C [4]: 19.5% | viability, T/C [5]: 7.62% | viability, T/C [6]: 4.64% | viability, T/C [7]: 101% | viability, T/C [8]: 88.2% | viability, T/C [9]: 76% | viability, T/C [10]: 21.3% | viability, T/C [11]: 8.2% | viability, T/C [12]: 4.88% | viability, T/C [13]: 116% | viability, T/C [14]: 93.7% | viability, T/C [15]: 53.8% | viability, T/C [16]: 17.2% | viability, T/C [17]: 6.62% | viability, T/C [18]: 4.69% | viability, T/C [19]: 88.7% | viability, T/C [20]: 84.9% | viability, T/C [21]: 62.5% | viability, T/C [22]: 21.5% | viability, T/C [23]: 10.6% | viability, T/C [24]: 4.67% | viability, T/C [25]: 93.1% | viability, T/C [26]: 92.8% | viability, T/C [27]: 71.8% | viability, T/C [28]: 18.2% | viability, T/C [29]: 12.4% | viability, T/C [30]: 4.45% | viability, T/C [31]: 84.4% | viability, T/C [32]: 75.1% | viability, T/C [33]: 62.5% | viability, T/C [34]: 26.4% | viability, T/C [35]: 9.3% | viability, T/C [36]: 6.12%
